Experimental findings from ChEMBL document CHEMBL3886562, “Substituted pyridone derivatives as PDE10 inhibitors” (2016) are described below.

For the assay, the target named is cAMP and cAMP-inhibited cGMP 3',5'-cyclic phosphodiesterase 10A (Homo sapiens, UniProt Q9Y233). Description: PDE10 Fluorescence Polarization (FP) Assay: The fluorescence polarization assay for cyclic nucleotide phosphodiesterases was performed using an IMAP FP kit supplied by Molecular Devices, Sunnyvale, Calif. (product # R8139). IMAPU technology has been applied previously to phosphodiesterase assays (Huang, W., et al., J. Biomol Screen, 2002, 7: 215). Assays were performed at room temperature in 384-well microtiter plates with an incubation volume of 20.2 uL. Solutions of test compounds were prepared in DMSO and serially diluted with DMSO to yield 8 uL of each of 10 solutions differing by 3-fold in concentration, at 32 serial dilutions per plate.
Chain of cAMP and cAMP-inhibited cGMP 3',5'-cyclic phosphodiesterase 10A (Q9Y233 whole entry): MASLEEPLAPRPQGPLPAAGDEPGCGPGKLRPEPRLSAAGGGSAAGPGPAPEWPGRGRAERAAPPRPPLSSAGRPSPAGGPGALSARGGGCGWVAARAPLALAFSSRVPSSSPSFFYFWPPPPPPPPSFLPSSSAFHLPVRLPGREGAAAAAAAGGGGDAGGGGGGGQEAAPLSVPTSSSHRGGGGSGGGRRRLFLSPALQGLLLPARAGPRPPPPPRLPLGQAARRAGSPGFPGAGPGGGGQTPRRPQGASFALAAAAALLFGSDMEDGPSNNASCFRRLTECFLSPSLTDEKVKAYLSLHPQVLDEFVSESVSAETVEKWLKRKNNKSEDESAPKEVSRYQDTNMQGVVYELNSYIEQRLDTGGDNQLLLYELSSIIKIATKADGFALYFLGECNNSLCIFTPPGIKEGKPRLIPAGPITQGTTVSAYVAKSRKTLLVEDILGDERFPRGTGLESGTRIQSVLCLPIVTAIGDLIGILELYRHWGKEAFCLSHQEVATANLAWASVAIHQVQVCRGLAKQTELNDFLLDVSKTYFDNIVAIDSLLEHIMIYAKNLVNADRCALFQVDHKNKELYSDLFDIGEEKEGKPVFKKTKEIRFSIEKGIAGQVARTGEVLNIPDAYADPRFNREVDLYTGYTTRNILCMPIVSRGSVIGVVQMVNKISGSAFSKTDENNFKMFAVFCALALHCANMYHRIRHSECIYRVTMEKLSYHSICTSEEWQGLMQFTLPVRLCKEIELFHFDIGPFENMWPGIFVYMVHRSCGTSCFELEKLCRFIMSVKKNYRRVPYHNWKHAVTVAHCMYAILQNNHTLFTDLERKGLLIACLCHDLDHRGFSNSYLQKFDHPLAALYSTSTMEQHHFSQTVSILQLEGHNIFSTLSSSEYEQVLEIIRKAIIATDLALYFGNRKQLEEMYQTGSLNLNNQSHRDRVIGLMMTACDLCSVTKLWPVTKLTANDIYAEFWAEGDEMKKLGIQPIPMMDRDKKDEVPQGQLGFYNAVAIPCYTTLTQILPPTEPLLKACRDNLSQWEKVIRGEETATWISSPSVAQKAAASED

`Cc1ncc(-c2cc(F)c(=O)n(C)c2)c(OC[C@H]2C[C@@H]2c2ccc3ccccc3n2)n1` registered a Ki of 0.041 nM.
`Cc1ccc([C@H]2C[C@@H]2COc2nc(C)ncc2-c2ccc(=O)n(CC#N)c2)nc1`: affinity was put at a Ki of 3.48 nM.
